Source: US12653191B2, “Active compound combinations” (Bayer Aktiengesellschaft, priority 2020, dated 2026)
Where two headings read alike, the source gives them in different places.

Assays:
Diaporthe citri = assay: in vitro-Test with fungal microorganisms, Method A (tables F1-F11); type: cell-based; settings: Diaporthe citri, single active, read-out: Efficacy
Experimental: (§1) Example: In Vitro-Test with Fungal Microorganisms
(§2) Wells of 96-well microtiter plates are filled with 10 μl of a preparation of test compound or compound combination in methanol+emulsifier alkylaryl-polyglycol-ether. Thereafter, the solvent is evaporated in a hood. At the next step, 100 μl of liquid potato dextrose medium is given into each well, that has been amended with an appropriate concentration of spores or mycelium suspension of the test fungus.
(§3) With the aid of a photometer, the extinction in all wells is measured at the wavelength of 620 nm.
(§4) The microtiter plates are incubated at 20° C. and 85% relative humidity. The inhibition of growth is determined again photometrically 3-5 days after the application. Efficacy is calculated in relation to the untreated control, 0% efficacy means fungal growth as high as in untreated control while 100% efficacy means no fungal growth is measured.
(§5) The data in tables A1 to A12, B1 to B14, C1 to C10, D1 to D8, E1 to E8, F1 to F11, G1 to G4, H1 to H4 and I1 to I5 were collected according to Method A. The data in tables A13 to A22, B15 to B18, C11 to C20, E9 to E16, F12 to F15, G5 to G15, H5 to H8, I6 to I11 and J1 to J11 were collected according to Method B.

Botrytis cinerea [1] = assay: in vitro-Test with fungal microorganisms, Method A (tables B1-B14); type: cell-based; settings: Botrytis cinerea, read-out: Efficacy
Experimental: as §1, §2, §3, §4, §5

[2] = test system: Ustilago segetum var. avenae; assay: in vitro-Test with fungal microorganisms, Method A (tables I1-I5); type: cell-based; settings: alone, read-out: Efficacy %
Experimental: as §1, §2, §3, §4, §5

Cercospora beticola [3] = assay: in vitro-Test with fungal microorganisms, Method A (tables C1-C10); type: cell-based; settings: Cercospora beticola, read-out: Efficacy %
Experimental: as §1, §2, §3, §4, §5

Alternaria alternate = assay: in vitro-Test with fungal microorganisms, Method A (tables A1-A12); type: cell-based, Alternaria alternata; settings: Alternaria, applied alone, read-out: Efficacy %
Experimental: as §1, §2, §3, §4, §5

Botrytis cinerea [4] = assay: in vitro-Test with fungal microorganisms, Method B (tables B15-B18); type: cell-based
Experimental: as §1
as §2, with “30” for “10”, “200” for “100”, “growth” for “potato dextrose”, “given,” for “given into each well,”
(§6) With the aid of a photometer, the extinction in all wells is measured at the wavelength of 600 nm.
(§7) The microtiter plates are incubated for 3 to 7 days at 20° C. and 85% relative humidity. After the incubation inhibition of growth is determined photometrically. Efficacy is calculated in relation to the untreated control, 0% efficacy means fungal growth as high as in untreated control while 100% efficacy means no fungal growth is measured.
as §5

Colletotrichum coccodes = assay: in vitro-Test with fungal microorganisms, Method B (tables J1-J11); type: cell-based; settings: Colletotrichum coccodes, applied alone, read-out: Efficacy %
Experimental: as §1
as §2, with “30” for “10”, “200” for “100”, “growth” for “potato dextrose”, “given,” for “given into each well,”
as §6, §7, §5

Alternaria alternata = assay: in vitro-Test with fungal microorganisms, Method B (tables A13-A22); type: cell-based; settings: for inhibition of growth at 0.008 ppm / inhibition of growth at 0.04 ppm / inhibition of growth at 0.2 ppm / inhibition of growth at 1 ppm: Alternaria alternata, read-out: Efficacy
Experimental: as §1
as §2, with “30” for “10”, “200” for “100”, “growth” for “potato dextrose”, “given,” for “given into each well,”
as §6, §7, §5

Fusarium culmorum = assay: in vitro-Test with fungal microorganisms, Method B (tables G5-G15); type: cell-based; settings: for inhibition of growth at 0.008 ppm / inhibition of growth at 0.04 ppm / inhibition of growth at 0.2 ppm / inhibition of growth at 1 ppm: Fusarium culmorum, alone, read-out: Efficacy
Experimental: as §1
as §2, with “30” for “10”, “200” for “100”, “growth” for “potato dextrose”, “given,” for “given into each well,”
as §6, §7, §5

Cercospora beticola [5] = assay: in vitro-Test with fungal microorganisms, Method B (tables C11-C20); type: cell-based
Experimental: as §1
as §2, with “30” for “10”, “200” for “100”, “growth” for “potato dextrose”, “given,” for “given into each well,”
as §6, §7, §5

[6] = test system: Ustilago segetum var. avenae; assay: in vitro-Test with fungal microorganisms, Method B (tables I6-I11); type: cell-based; settings: alone
Experimental: as §1
as §2, with “30” for “10”, “200” for “100”, “growth” for “potato dextrose”, “given,” for “given into each well,”
as §6, §7, §5

Cordana musae = assay: in vitro-Test with fungal microorganisms, Method B (tables E9-E16); type: cell-based; settings: Neocordana musae, single active, read-out: Efficacy
Experimental: as §1
as §2, with “30” for “10”, “200” for “100”, “growth” for “potato dextrose”, “given,” for “given into each well,”
as §6, §7, §5

[7] = Botrytis cinerea, 1 ppm alone, read-out: Efficacy %

## Cc1ccc(CC2CON=C(c3cc(C)nnc3Oc3cccc(C4CC4)c3F)N2)c(C)c1 (racemic) [Compound I-052, rac-3-[3-(3-cyclopropyl-2-fluorophenoxy)-6-methylpyridazin-4-yl]-5-[(2,4-dimethylphenyl)methyl]-5,6-dihydro-4H-1,2,4-oxadiazine]
Diaporthe citri; 0.0008 ppm
  inhibition of growth at 0.0008 ppm: 0%
Diaporthe citri; 0.004 ppm
  inhibition of growth at 0.004 ppm: 0%
Diaporthe citri; 0.02 ppm
  inhibition of growth at 0.02 ppm: 100%
Diaporthe citri; 0.1 ppm
  inhibition of growth at 0.1 ppm: 100%
Botrytis cinerea [1]; 0.0008 ppm
  inhibition of growth at 0.0008 ppm: 0%
Botrytis cinerea [1]; 0.004 ppm
  inhibition of growth at 0.004 ppm: 0%
Botrytis cinerea [1]; 0.02 ppm
  inhibition of growth at 0.02 ppm: 0%
Botrytis cinerea [1]; 0.1 ppm
  inhibition of growth at 0.1 ppm: 88%
[2]; 0.0008 ppm
  inhibition of growth at 0.0008 ppm: 2%
[2]; 0.004 ppm
  inhibition of growth at 0.004 ppm: 3%
[2]; 0.02 ppm
  inhibition of growth at 0.02 ppm: 0%
[2]; 0.1 ppm
  inhibition of growth at 0.1 ppm: 0%
Cercospora beticola [3]; 0.0008 ppm alone
  inhibition of growth at 0.0008 ppm: 0%
Cercospora beticola [3]; 0.004 ppm alone
  inhibition of growth at 0.004 ppm: 0%
Cercospora beticola [3]; 0.02 ppm alone
  inhibition of growth at 0.02 ppm: 0%
Cercospora beticola [3]; 0.1 ppm alone
  inhibition of growth at 0.1 ppm: 20%
Alternaria alternate; 0.0008 ppm
  inhibition of growth at 0.0008 ppm: 2%
Alternaria alternate; 0.004 ppm
  inhibition of growth at 0.004 ppm: 0%
Alternaria alternate; 0.02 ppm
  inhibition of growth at 0.02 ppm: 9%
Alternaria alternate; 0.1 ppm
  inhibition of growth at 0.1 ppm: 72%

## Cc1ccc(C[C@H]2CON=C(c3cc(C)nnc3Oc3cccc(C4CC4)c3F)N2)c(C)c1 [Compound I-130, (5S)-3-[3-(3-cyclopropyl-2-fluorophenoxy)-6-methylpyridazin-4-yl]-5-(2,4-dimethylbenzyl)-5,6-dihydro-4H-1,2,4-oxadiazine]
Botrytis cinerea [4]; Botrytis cinerea, 0.008 ppm alone, read-out: Efficacy %
  inhibition of growth at 0.008 ppm: 96%
Botrytis cinerea [4]; Botrytis cinerea, 0.04 ppm alone, read-out: Efficacy %
  inhibition of growth at 0.04 ppm: 100%
Botrytis cinerea [4]; Botrytis cinerea, 0.2 ppm alone, read-out: Efficacy %
  inhibition of growth at 0.2 ppm: 100%
Botrytis cinerea [4]; [7]
  inhibition of growth at 1 ppm: 100%
Colletotrichum coccodes; 0.008 ppm
  inhibition of growth at 0.008 ppm: 94%
Colletotrichum coccodes; 0.04 ppm
  inhibition of growth at 0.04 ppm: 100%
Colletotrichum coccodes; 0.2 ppm
  inhibition of growth at 0.2 ppm: 100%
Colletotrichum coccodes; 1 ppm
  inhibition of growth at 1 ppm: 100%
Alternaria alternata; 0.008 ppm
  inhibition of growth at 0.008 ppm: 25%
Alternaria alternata
  inhibition of growth at 0.04 ppm: 100%
  inhibition of growth at 0.2 ppm: 100%
  inhibition of growth at 1 ppm: 100%

## Cc1ccc(C[C@@H]2CON=C(c3cc(C)nnc3Oc3cccc(Cl)c3F)N2)c(Cl)c1 [Compound I-338, (5R)-3-[3-(3-chloro-2-fluorophenoxy)-6-methylpyridazin-4-yl]-5-(2-chloro-4-methylbenzyl)-5,6-dihydro-4H-1,2,4-oxadiazine]
Botrytis cinerea [4]; [7]
  inhibition of growth at 1 ppm: 85%
Fusarium culmorum
  inhibition of growth at 0.008 ppm: 22%
  inhibition of growth at 0.04 ppm: 21%
  inhibition of growth at 0.2 ppm: 0%
  inhibition of growth at 1 ppm: 0%
Alternaria alternata; 0.008 ppm
  Efficacy: 0%
  inhibition of growth at 0.008 ppm: 0%

## Cc1ccc(C[C@H]2CON=C(c3cc(C)nnc3Oc3cccc(Cl)c3F)N2)c(Cl)c1 [Compound I-339, (5S)-3-[3-(3-chloro-2-fluoro-phenoxy)-6-methylpyridazin-4-yl]-5-(2-chloro-4-methylbenzyl)-5,6-dihydro-4H-1,2,4-oxadiazine]
Cercospora beticola [5]; Cercospora beticola, 0.008 ppm, read-out: Efficacy %
  inhibition of growth at 0.008 ppm: 28%
Cercospora beticola [5]; Cercospora beticola, 0.04 ppm, read-out: Efficacy %
  inhibition of growth at 0.04 ppm: 0%
Cercospora beticola [5]; Cercospora beticola, 0.2 ppm, read-out: Efficacy %
  inhibition of growth at 0.2 ppm: 61%
Cercospora beticola [5]; Cercospora beticola, 1 ppm, read-out: Efficacy %
  inhibition of growth at 1 ppm: 98%
Fusarium culmorum
  inhibition of growth at 0.008 ppm: 0%
  inhibition of growth at 0.04 ppm: 0%
  inhibition of growth at 0.2 ppm: 14%
  inhibition of growth at 1 ppm: 99%
[6]; 0.008 ppm, read-out: Efficacy %
  inhibition of growth at 0.008 ppm: 2%
[6]; 0.04 ppm, read-out: Efficacy %
  inhibition of growth at 0.04 ppm: 0%
[6]; 0.2 ppm, read-out: Efficacy %
  inhibition of growth at 0.2 ppm: 0%
[6]; 1 ppm, read-out: Efficacy %
  inhibition of growth at 1 ppm: 0%
Cordana musae; 0.008 ppm
  inhibition of growth at 0.008 ppm: 63%
Cordana musae; 0.04 ppm
  inhibition of growth at 0.04 ppm: 100%
Cordana musae; 0.2 ppm
  inhibition of growth at 0.2 ppm: 100%
Cordana musae; 1 ppm
  inhibition of growth at 1 ppm: 100%
Alternaria alternata; single compound
  inhibition of growth at 0.04 ppm: 100%
  inhibition of growth at 0.2 ppm: 100%
  inhibition of growth at 1 ppm: 100%

## CS(=O)(=O)Oc1cccc(Cl)c1C1CC(c2csc(C3CCN(C(=O)Cn4nc(C(F)F)cc4C(F)F)CC3)n2)=NO1 (stereo not shown) [fluoxapiprolin]
Botrytis cinerea [4]; 0.8 ppm, alone
  Efficacy %: 0%
Botrytis cinerea [4]; 4 ppm alone
  Efficacy %: 6%
Botrytis cinerea [4]; 20 ppm alone
  Efficacy %: 5%
Cercospora beticola [5]; 20 ppm
  Efficacy %: 0%
Alternaria alternata; 4 ppm
  Efficacy: 0%
Alternaria alternata; 20 ppm
  Efficacy: 1%
Alternaria alternata; single compound, 0.8 ppm
  Efficacy: 0%

## N#Cc1ccc(Oc2ccc(C(F)(F)C(O)(Cn3[nH]cnc3=S)c3ccc(F)cc3F)nc2)cc1 (stereo not shown) [fluoxytioconazole]
Botrytis cinerea [4]; 0.008 ppm alone
  Efficacy %: 0%
Botrytis cinerea [4]; 0.2 ppm alone
  Efficacy %: 0%
Botrytis cinerea [4]; 1 ppm alone
  Efficacy %: 13%
Fusarium culmorum; 0.008 ppm alone
  Efficacy: 12%
Fusarium culmorum; 1 ppm alone
  Efficacy: 27%
[6]; 0.008 ppm
  Efficacy %: 8%
[6]; 0.04 ppm
  Efficacy %: 35%
[6]; 0.2 ppm
  Efficacy %: 100%
Alternaria alternata; single compound, 0.008 ppm
  Efficacy: 5%

## CCO[PH](=O)O [fosetyl-al]
Botrytis cinerea [4]; 4 ppm alone
  Efficacy %: 2%
Botrytis cinerea [4]; 100 ppm alone
  Efficacy %: 0%
